The subject of the first assay is MYOD1-positive urine-derived cells. Put plainly: Promotion of myotube induction by low molecular compounds, myosin heavy chain immunocytochemistry. The format is cell-based, human. Conditions: compound added to differentiation medium with doxycycline; FIG. 3A 1 μM, FIG. 3B 10 μM. The protocol:
(§1) The MYOD1-positive urine-derived cells were plated onto a collagen-coated culture dish or plate and cultured in a differentiation medium supplemented with doxycycline (e.g., 1 μg/ml) (the medium containing high-glucose-containing DMEM with GlutaMAX-I (Thermo Fisher Scientific; 10569-010), 5% horse serum, ITS Liquid Media Supplement (Sigma; 13146), and 1 μg/ml doxycycline) to induce the myotubes. Whether or not muscular differentiation could be promoted with the addition of a low molecular compound in a compound library (Sigma; S990043-EPI1) to the differentiation medium was examined. The low molecular compound was added at a final concentration of 0.1, 1, or 10 μM. Myotube induction was evaluated by immunocytochemistry and Western blotting.
For immunocytochemistry, cultured cells were washed in PBS, fixed in 4% paraformaldehyde, and then incubated with the addition of 0.1% Triton-X at room temperature for 10 minutes. The anti-myosin heavy chain antibody (1:50, R&D, Minneapolis, U.S.A.; MAB4470) and the anti-dystrophin antibody (1:30, Novocastra, Newcastle, UK; NCL-DYS1) were used as primary antibodies, and Alexa Fluor 546 goat anti-mouse IgG (H+L) (1:300, Invitrogen; A11003) was used as a secondary antibody. Nuclear staining was performed with the use of Hoechst 33342. An image was obtained using a fluorescence microscope (BZ-9000 or BZ-X800, KEYENCE, Osaka, Japan) and analyzed using the BZ-X Analyzer (KEYENCE).
As a result, it was founded that a degree of muscular differentiation evaluated in terms of the myosin heavy chain protein expression level by immunocytochemistry was enhanced to a significant extent with the addition of the epigenetic regulatory compound(s) to the differentiation medium (FIGS. 3 and 4). […] Also, effects of histone methyltransferase inhibitors (GSK343, SGC707, furamidine dihydrochloride, UNC2327, E7438, and MI-2 (menin-MLL inhibitor)), histone demethylase inhibitors (IOX 1 and GSK-J1), histone deacetylase (HDAC) inhibitors (VORINOSTAT, LMK-235, CAY10603, and BRD73954), SIRT2 inhibitor (SirReal 2), and PARP inhibitor (EB47) were observed. In FIG. 3, a horizontal axis represents a type of a compound added, and a vertical axis represents an area of a myosin heavy chain-positive region determined by immunocytochemistry. […] Statistical analysis was performed by a Kruskal-Wallis test at a significance level of p<0.05. “*,” “**,” and “***” indicate p<0.05, p<0.01, and p<0.001, respectively.
For the compound `CCN(c1cc(-c2ccc(CN3CCOCC3)cc2)cc(C(=O)NCc2c(C)cc(C)[nH]c2=O)c1C)C1CCOCC1` [E7438], the “degree of muscular differentiation evaluated in terms of the myosin heavy chain protein expression level by immunocytochemistry” value is listed as “observed”.

Turning to `CCCc1cc(C)[nH]c(=O)c1CNC(=O)c1cc(-c2ccnc(N3CCN(C)CC3)c2)cc2c1cnn2C(C)C` [GSK343], the “degree of muscular differentiation evaluated in terms of the myosin heavy chain protein expression level by immunocytochemistry” value is on record as “observed”. Same read-out and setting: the value for `O=C(NO)c1cccc(C(=O)NCCc2ccccc2)c1` [BRD73954] was “observed”; that for `O=C(NCC(=O)N1CCCC1)Nc1ccc2cnccc2c1` [SGC707] was “observed”. In the case of `Cl.Cl.Nc1ncnc2c1ncn2[C@@H]1O[C@H](C(=O)N2CCN(CC(=O)Nc3cccc4c3CNC4=O)CC2)[C@@H](O)[C@H]1O` [EB47], the “degree of muscular differentiation evaluated in terms of the myosin heavy chain protein expression level by immunocytochemistry” value is listed as “observed”.

Consider `O=C(O)c1ccc(O)c2ncccc12` [IOX 1], for which the “degree of muscular differentiation evaluated in terms of the myosin heavy chain protein expression level by immunocytochemistry” value is “observed”. Take `CCCc1cc2c(N3CCN(C4=NCC(C)(C)S4)CC3)ncnc2s1` [MI-2 (menin-MLL inhibitor)]: the “degree of muscular differentiation evaluated in terms of the myosin heavy chain protein expression level by immunocytochemistry” value was “observed”. On to `O=C(O)CCNc1cc(N2CCc3ccccc3CC2)nc(-c2ccccn2)n1` [GSK-J1], for which the “degree of muscular differentiation evaluated in terms of the myosin heavy chain protein expression level by immunocytochemistry” value was “observed”. As for `O=C(CCCCCCC(=O)Nc1ccccc1)NO` [VORINOSTAT], the “degree of muscular differentiation evaluated in terms of the myosin heavy chain protein expression level by immunocytochemistry” value was “observed”. Consider `Cc1cc(C)nc(SCC(=O)Nc2ncc(Cc3cccc4ccccc34)s2)n1` [SirReal 2], for which the “degree of muscular differentiation evaluated in terms of the myosin heavy chain protein expression level by immunocytochemistry” value was “observed”. For `Cl.Nc1nccc2c1ncn2[C@@H]1C=C(CO)[C@@H](O)[C@H]1O` [DZNep, 3-deazaneplanocin A hydrochloride], the “degree of muscular differentiation evaluated in terms of the myosin heavy chain protein expression level by immunocytochemistry” value is listed as “high”. The same measure, in the same setting: next, `Cc1cc(C)cc(C(=O)NOCCCCCC(=O)NO)c1` [LMK-235]: “observed”.

With `CC(C)(C)OC(=O)Nc1ccc(-c2cc(C(=O)NCCCCCCC(=O)NO)no2)cc1` [CAY10603], the “degree of muscular differentiation evaluated in terms of the myosin heavy chain protein expression level by immunocytochemistry” value is “observed”.

Consider UNC2327, for which the “degree of muscular differentiation evaluated in terms of the myosin heavy chain protein expression level by immunocytochemistry” value was “observed”.

The test system of another assay is myotubes induced from urine-derived cells obtained from 4 healthy subjects. Briefly: Promotion of myotube induction, Western blotting of myosin heavy chain and dystrophin. The format is cell-based, human. The following applies: in the presence of DZNep; urine-derived cells from 4 healthy subjects. As to the method: as §1
The effects of DZNep on promoting myotube induction were also examined by Western blotting. […] The total protein concentration was measured using the BCA protein assay kit (Thermo Fisher Scientific; 23227), denaturation was performed using NuPAGE® LDS Sample Buffer (Thermo Fisher Scientific; NP0007), SDS-PAGE was performed on 3% to 8% NuPAGE® Novex Tris-Acetate Gel (Invitrogen; EA03785BOX), and the resultant was transferred onto a PVDF membrane (Millipore, Billerica, Mass., U.S.A.; IPVH304F0). […] After the antibody reaction, a band of interest was detected using the ECL Prime Western Blotting Detection Reagent (GE Healthcare, UK; RPN2232). […]
(In general: In western blotting, separated proteins are transferred to a membrane and probed.)
On to `Cl.Nc1nccc2c1ncn2[C@@H]1C=C(CO)[C@@H](O)[C@H]1O` [DZNep, 3-deazaneplanocin A hydrochloride], for which the “dystrophin expression by Western blotting” value was “expressed at high levels” and the “myosin heavy chain expression by Western blotting” value is listed as “expressed at high levels”.

The values above are taken from patent publication US20220144902A1, “METHOD FOR INDUCING MUSCULAR CELLS USING CELLS IN SPOT URINE” (NATIONAL CENTER OF NEUROLOGY AND PSYCHIATRY, priority 2018, published 2022).
